# Assays:
# Assay in all cases: PTPs activity assay (DiFMUP)
# Type in all cases: biochemical
# HePTP = target: T1, HePTP (Homo sapiens, UniProt P35236)
# T1 construct: His; made in house; host or cells: E. coli
# T1 sequence (P35236 1-360): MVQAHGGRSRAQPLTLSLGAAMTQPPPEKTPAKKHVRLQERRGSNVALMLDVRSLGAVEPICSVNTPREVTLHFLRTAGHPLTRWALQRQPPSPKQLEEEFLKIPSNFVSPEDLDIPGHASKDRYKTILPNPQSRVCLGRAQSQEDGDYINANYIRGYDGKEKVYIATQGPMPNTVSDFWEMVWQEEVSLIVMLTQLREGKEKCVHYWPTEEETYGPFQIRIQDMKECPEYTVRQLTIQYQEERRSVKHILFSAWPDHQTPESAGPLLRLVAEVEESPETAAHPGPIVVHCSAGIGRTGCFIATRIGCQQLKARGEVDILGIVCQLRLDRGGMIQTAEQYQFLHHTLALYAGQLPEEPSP
# Method: (§1) Catalytic activity screening methods for PTPs using candidate compounds were performed as previously described.^[ [77] ^] In brief, soluble fusion PTP proteins, His‐ΔSHP2, encompassing the peptide from amino acids 205–593 retaining PTP activity, His‐ΔSHP2^K325A, His‐ΔSHP1, encompassing the peptide from amino acids 202–595 retaining PTP activity, His‐PTP1B, His‐HePTP, His‐VHR, and His‐TCPTP were cloned, expressed, and purified in E. coli. After determining protein concentration using bicinchoninic acid (BCA) assay kit, 1 µg fusion protein, 10 µM library compound were added in 100 µL reaction mixture (55 mM 4‐(2‐hydroxyethyl)‐1‐piperazineethanesulfonic acid [HEPES], 100 mM sodium chloride [NaCl], 0.5 mM ethylenediaminetetraacetic acid [EDTA], 1 mM dithiothreitol [DTT], 0.01% Triton X‐100, 0.002% bovine serum albumin [BSA], and 0.1% dimethyl sulfoxide [DMSO]) and incubated at 37 °C for 30 min in the dark, with Na3VO4 as positive control. The detection substrate DiFMUP (50 µM) was promptly added to each reaction and functioned at 37 °C for 30 min in the dark. The fluorescence intensity was then measured using Multimode Plate Reader (λa = 358 nm, λe = 455 nm, PerkinElmer, USA).
# PTP1B = target: T2, PTP1B (Homo sapiens, UniProt P18031); settings: read-out: IC50 of PTPs PTP1B
# T2 construct: His; made in house; host or cells: E. coli
# T2 sequence (P18031 1-435): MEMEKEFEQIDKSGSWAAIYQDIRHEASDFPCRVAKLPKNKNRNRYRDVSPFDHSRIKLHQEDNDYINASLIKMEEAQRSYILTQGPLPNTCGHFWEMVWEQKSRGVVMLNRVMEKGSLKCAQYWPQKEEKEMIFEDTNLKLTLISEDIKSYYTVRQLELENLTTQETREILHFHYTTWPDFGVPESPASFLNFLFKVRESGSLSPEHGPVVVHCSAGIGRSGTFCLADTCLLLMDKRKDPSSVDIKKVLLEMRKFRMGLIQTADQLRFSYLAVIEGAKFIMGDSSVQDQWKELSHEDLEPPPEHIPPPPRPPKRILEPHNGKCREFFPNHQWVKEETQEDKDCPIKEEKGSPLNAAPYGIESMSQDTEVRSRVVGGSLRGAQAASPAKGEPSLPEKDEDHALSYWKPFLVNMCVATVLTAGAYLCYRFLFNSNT
# Method: as §1
# TCPTP = target: T3, TCPTP (Homo sapiens, UniProt P17706)
# T3 construct: His; made in house; host or cells: E. coli
# T3 sequence (P17706 1-415): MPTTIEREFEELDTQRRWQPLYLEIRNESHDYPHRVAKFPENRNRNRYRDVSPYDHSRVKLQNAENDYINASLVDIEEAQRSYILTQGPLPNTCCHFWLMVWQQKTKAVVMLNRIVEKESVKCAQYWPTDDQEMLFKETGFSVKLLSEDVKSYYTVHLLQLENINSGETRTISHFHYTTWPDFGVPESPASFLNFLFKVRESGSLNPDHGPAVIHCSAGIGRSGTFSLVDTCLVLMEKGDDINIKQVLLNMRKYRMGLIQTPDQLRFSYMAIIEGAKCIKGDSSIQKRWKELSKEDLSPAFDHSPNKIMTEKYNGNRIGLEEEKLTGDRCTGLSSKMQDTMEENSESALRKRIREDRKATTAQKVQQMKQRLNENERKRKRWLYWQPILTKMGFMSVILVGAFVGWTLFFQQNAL
# Method: as §1
# VHR = target: T4, VHR (Homo sapiens, UniProt P51452)
# T4 construct: His; made in house; host or cells: E. coli
# T4 sequence (P51452 whole entry): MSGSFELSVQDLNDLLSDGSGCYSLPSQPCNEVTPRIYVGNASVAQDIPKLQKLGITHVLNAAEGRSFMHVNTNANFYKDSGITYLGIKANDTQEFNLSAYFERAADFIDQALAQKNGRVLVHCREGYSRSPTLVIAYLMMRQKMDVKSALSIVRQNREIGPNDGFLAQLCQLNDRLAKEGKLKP
# Method: as §1
# ΔSHP1 = target: T5, ΔSHP1 (Homo sapiens, UniProt P29350)
# T5 construct: His‐ΔSHP1, encompassing the peptide from amino acids 202–595 retaining PTP activity; His; made in house; host or cells: E. coli
# T5 sequence (P29350 202-595, stated change not applied): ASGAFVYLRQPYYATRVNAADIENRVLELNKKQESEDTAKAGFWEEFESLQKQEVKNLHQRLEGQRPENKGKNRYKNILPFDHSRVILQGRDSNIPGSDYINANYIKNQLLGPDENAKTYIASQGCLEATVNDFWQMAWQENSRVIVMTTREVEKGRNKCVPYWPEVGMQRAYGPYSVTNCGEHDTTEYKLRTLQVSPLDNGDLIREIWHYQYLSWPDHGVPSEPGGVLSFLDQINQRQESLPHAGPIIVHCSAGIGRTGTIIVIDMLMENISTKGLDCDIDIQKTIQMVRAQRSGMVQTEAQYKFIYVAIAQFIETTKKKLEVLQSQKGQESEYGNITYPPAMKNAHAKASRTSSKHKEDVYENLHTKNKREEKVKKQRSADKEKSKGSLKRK
# Method: as §1
# ΔSHP2 = target: T6, ΔSHP2 (Homo sapiens, UniProt Q06124)
# T6 construct: His‐ΔSHP2, encompassing the peptide from amino acids 205–593 retaining PTP activity; His; made in house; host or cells: E. coli
# T6 sequence (Q06124 205-593): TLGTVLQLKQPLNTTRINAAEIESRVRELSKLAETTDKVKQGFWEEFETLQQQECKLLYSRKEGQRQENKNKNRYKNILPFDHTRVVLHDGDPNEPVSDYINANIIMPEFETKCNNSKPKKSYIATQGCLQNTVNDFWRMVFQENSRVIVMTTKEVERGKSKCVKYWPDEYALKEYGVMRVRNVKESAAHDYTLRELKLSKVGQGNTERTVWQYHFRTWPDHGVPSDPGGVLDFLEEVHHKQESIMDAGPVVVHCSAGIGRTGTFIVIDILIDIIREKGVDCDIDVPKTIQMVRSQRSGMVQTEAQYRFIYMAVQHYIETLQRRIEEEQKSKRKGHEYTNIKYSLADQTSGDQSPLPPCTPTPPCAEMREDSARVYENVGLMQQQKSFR
# Method: as §1
SMILES,IC50 (HePTP) [µM],IC50 (PTP1B) [µM],IC50 (TCPTP) [µM],IC50 (VHR) [µM],IC50 (ΔSHP1) [µM],IC50 (ΔSHP2) [µM]
"O=C1Nc2ccc(I)cc2/C1=C/c1cc(Br)c(O)c(Br)c1 [S2872, GW5074]",472,110,322,131,246,33.8
CCCCCCCCCCCC1=C(O)C(=O)C=C(O)C1=O [Embelin],> 200,> 200,> 200,> 200,> 200,10.5
